The source of these data is the OPERA property sets (Mansouri et al. 2018).

In the case of `O=C(O)COC(=O)c1cc(Oc2ccc(C(F)(F)F)cc2Cl)ccc1[N+](=O)[O-]`, the logP was 4.27.

`C=COC(=O)C(C)Oc1cc(Oc2ccc(C(F)(F)F)cc2Cl)ccc1[N+](=O)[O-]` (stereo unspecified): the logP came out at 4.54.

In turn, `O=[N+]([O-])c1ccc(Oc2ccc(C(F)(F)F)cc2Cl)cc1Oc1ccoc1` yielded a logP of 4.33.

On to `O=C(Oc1ccccc1)N1CCCC1`, for which the logP was determined as 2.73.

As to `COC(=O)c1cc(S(=O)(=O)c2ccc(C(F)(F)F)cc2Cl)ccc1[N+](=O)[O-]`, the logP is 3.57.

`CC(C)OC(=O)c1cc(OC(=O)N2CCCC2)c(Cl)cc1Cl`: the logP was 4.67.

With `C#CCOc1cc(OC(=O)N2CCC(F)(F)CC2)c(Cl)cc1Cl`, the logP was 3.57.

In turn, `O=C(Oc1ccc(Cl)cc1Cl)N1CCCC1` yielded a logP of 3.94.

As to `O=C(Oc1cc(O)c(Cl)cc1Cl)N1CCCC1`, the logP came out at 2.98.

`C#CCOc1cc(OC(=O)N2CCCC2)c(Cl)cc1Cl` registered a logP of 3.82.

`CC(C)OC(=O)c1cc(OC(=O)N2CCCC2)c(F)cc1Cl`: the logP worked out at 4.22.

Take `O=C(Oc1ccc(Cl)cc1)N1CCCC1`: the logP stood at 3.38.

`COC(=O)c1cc(Oc2ccc(C(F)(F)F)cc2Cl)ccc1[N+](=O)[O-]` registered a logP of 4.26.

In the case of `COC(=O)c1cc(S(=O)c2ccc(C(F)(F)F)cc2Cl)ccc1[N+](=O)[O-]` (stereo unspecified), the logP turned out to be 3.65.

On to `COC(=O)c1cc(Oc2cc(C(F)(F)F)ccc2Cl)ccc1[N+](=O)[O-]`, for which the logP amounted to 4.21.

Consider `CCOC(=O)C(C)OC(=O)c1cc(Oc2ccc(C(F)(F)F)cc2Cl)ccc1[N+](=O)[O-]` (stereo unspecified), for which the logP was 4.81.

With `C#CCOC1=Nc2cc(OC(=O)N3CCCC3)c(Cl)cc2OC1`, the logP came out at 2.93.

Turning to `COC(=O)c1cc(OC(=O)N2CCCC2)c(Cl)cc1Cl`, the lipophilicity (logP) is 3.95.

`CCOc1cc(Oc2ccc(C(F)(F)F)cc2Cl)ccc1[N+](=O)[O-]` returned a logP of 4.73.

As to `Nc1c([N+](=O)[O-])ccc(Oc2ccccc2)c1Cl`, the logP amounted to 4.04.

As to `C#CCOc1cc(OC(=O)N2CCCCC2)c(Cl)cc1Cl`, the logP stood at 4.25.

Molecule `O=[N+]([O-])c1ccc(Oc2ccc(C(F)(F)F)cc2Cl)cc1` yielded a logP of 4.54.

In turn, `O=[N+]([O-])c1ccc(Oc2ccccc2)cc1` returned a logP of 3.92.

The molecule `C#CCOc1cc(OC(=O)N2CCC(F)(F)C2)c(Cl)cc1Cl` had a logP of 3.42.

For the molecule `O=C(Oc1ccccc1Cl)N1CCCC1`, the logP is 3.13.

`CCOC(=O)C(C)Oc1cc(Oc2ccc(C(F)(F)F)cc2Cl)ccc1[N+](=O)[O-]` (stereo unspecified) displayed a logP of 4.53.

As for `COC(=O)c1cc(Oc2ccc(C(F)(F)F)cc2Cl)ccc1Cl`, the logP was 5.04.

Molecule `COC(=O)CON=C(C)c1cc(Oc2ccc(C(F)(F)F)cc2Cl)ccc1[N+](=O)[O-]` had a logP of 4.54.

In turn, `COC(=O)c1cc(Sc2ccc(C(F)(F)F)cc2Cl)ccc1[N+](=O)[O-]` yielded a logP of 4.76.

`Cc1cccc(Oc2ccc([N+](=O)[O-])cc2)c1`: the log partition coefficient (logP) worked out at 4.4.

In turn, `C#CCOc1cc(OC(=O)N(CC)CC)c(Cl)cc1Cl` registered a logP of 3.95.
